# Test system: HBsAg
# Test: HepG2.2.15 cells primary screen assay: HBsAg assay (CLIA of secreted HBsAg)
# Type: cell-based, HBV
# Details: Hepatitis B virus
# Protocol: Example 23: HepG2.2.15 Cells Primary Screen Assay
# HepG2.2.15 cells (Acs et al. Proc Natl Acad Sci USA, 84, (1987), 4641-4), a constitutively HBV-expressing cell line were cultured in DMEM+Glutamax-I medium (Invitrogen, Carlsbad, Calif., USA), supplemented with 10% fetal bovine serum (Invitrogen) and G418 (Invitrogen) at a final concentration of 200 mg/L and maintained in 5% CO2 at 37° C.
# HepG2.2.15 cells were seeded in duplicate into white, 96-well plates at 1.5×10^4 cells/well. The cells were treated with a three-fold serial dilution series of the compounds in DMSO. The final DMSO concentration in all wells was 1% and DMSO was used as no drug control.
# The HBsAg chemiluminescence immunoassay (CLIA) kit (Autobio Diagnostics Co., Zhengzhou, China, Catalog number: CL0310-2) was used to measure the levels of secreted HBV antigens semi-quantitatively. For the detection 50 μL/well culture supernatant was used and HBsAg was quantified using HBsAg chemiluminescence immunoassay (CLIA) kit (Autobio Diagnostics Co., Zhengzhou, China, Catalog number: CL0310-2), 50 μL of the supernatant was transferred to the CLIA assay plate and 50 μL of enzyme conjugate reagent was added into each well. The plates were sealed and gently agitated for 1 hour at room temperature. The supernatant-enzyme-mixture was discarded and wells were washed 6 times with 300 μL of PBS. The residual liquid was removed by plating the CLIA plate […] on absorbent tissue paper. 25 μL of substrates A and B were added to each well. Luminance was measured using a luminometer (Mithras LB 940 Multimode Microplate Reader) after 10 minutes incubation. Dose-response curves were generated and the IC50 value was extrapolated by using the E-WorkBook Suite (ID Business Solutions Ltd., Guildford, UK). The IC50 was defined as the compound concentration (or conditioned media log dilution) at which HBsAg secretion was reduced by 50% compared to the no drug control.
# The compounds of the present invention were tested for their capacity to inhibit HBsAg as described herein.
smiles,measurement,value
"COC(=O)C1=C(CN2CCN(CCCCCCOc3cc4c(cc3OC)-c3cc(=O)c(C(=O)O)cn3C(C(C)(C)C)C4)CC2)NC(c2nccs2)=N[C@H]1c1ccc(F)cc1Cl (stereo partly drawn) [Example 1, 6-tert-butyl-9-[6-[4-[[(4R)-4-(2-chloro-4-fluoro-phenyl)-5-methoxycarbonyl-2-thiazol-2-yl-1,4-dihydropyrimidin-6-yl]methyl]piperazin-1-yl]hexoxy]-10-methoxy-2-oxo-6,7-dihydrobenzo[a]quinolizine-3-carboxylic Acid]",IC50,41 nM
"COC(=O)C1=C(CN2CCN(CCCCCOc3cc4c(cc3OC)-c3cc(=O)c(C(=O)O)cn3C(C(C)(C)C)C4)CC2)NC(c2nccs2)=N[C@H]1c1ccc(F)cc1Cl (stereo partly drawn) [Example 2, 6-tert-butyl-9-[5-[4-[[(4R)-4-(2-chloro-4-fluoro-phenyl)-5-methoxycarbonyl-2-thiazol-2-yl-1,4-dihydropyrimidin-6-yl]methyl]piperazin-1-yl]pentoxy]-10-methoxy-2-oxo-6,7-dihydrobenzo[a]quinolizine-3-carboxylic Acid]",IC50,88 nM
"COC(=O)C1=C(CN2CCN(CCCCOc3cc4c(cc3OC)-c3cc(=O)c(C(=O)O)cn3C(C(C)(C)C)C4)CC2)NC(c2nccs2)=N[C@H]1c1ccc(F)cc1Cl (stereo partly drawn) [Example 3, 6-tert-butyl-9-[4-[4-[[(4R)-4-(2-chloro-4-fluoro-phenyl)-5-methoxycarbonyl-2-thiazol-2-yl-1,4-dihydropyrimidin-6-yl]methyl]piperazin-1-yl]butoxy]-10-methoxy-2-oxo-6,7-dihydrobenzo[a]quinolizine-3-carboxylic Acid]",IC50,45 nM
"COC(=O)C1=C(CN2CCN(CCCOc3cc4c(cc3OC)-c3cc(=O)c(C(=O)O)cn3C(C(C)(C)C)C4)CC2)NC(c2nccs2)=N[C@H]1c1ccc(F)cc1Cl (stereo partly drawn) [Example 4, 6-tert-butyl-9-[3-[4-[[(4R)-4-(2-chloro-4-fluoro-phenyl)-5-methoxycarbonyl-2-thiazol-2-yl-1,4-dihydropyrimidin-6-yl]methyl]piperazin-1-yl]propoxy]-10-methoxy-2-oxo-6,7-dihydrobenzo[a]quinolizine-3-carboxylic Acid]",IC50,182 nM
"COC(=O)C1=C(CN2CCN(CCCOc3cc4c(cc3OC)-c3cc(=O)c(C(=O)O)cn3C(C(C)(C)C)C4)C(C(=O)O)C2)NC(c2nccs2)=N[C@H]1c1ccc(F)cc1Cl (stereo partly drawn) [Example 5, 6-tert-butyl-9-[3-[2-carboxy-4-[[(4R)-4-(2-chloro-4-fluoro-phenyl)-5-methoxycarbonyl-2-thiazol-2-yl-1,4-dihydropyrimidin-6-yl]methyl]piperazin-1-yl]propoxy]-10-methoxy-2-oxo-6,7-dihydrobenzo[a]quinolizine-3-carboxylic Acid]",IC50,3480 nM
"COC(=O)C1=C(CN2CCN(CCCCCCOc3cc4c(cc3OC)-c3cc(=O)c(C(=O)O)cn3C(C(C)(C)C)C4)CC2C(=O)O)NC(c2nccs2)=N[C@H]1c1ccc(F)cc1Cl (stereo partly drawn) [Example 6, 6-tert-butyl-9-[6-[3-carboxy-4-[[(4R)-4-(2-chloro-4-fluoro-phenyl)-5-methoxycarbonyl-2-thiazol-2-yl-1,4-dihydropyrimidin-6-yl]methyl]piperazin-1-yl]hexoxy]-10-methoxy-2-oxo-6,7-dihydrobenzo[a]quinolizine-3-carboxylic Acid]",IC50,262 nM
"COC(=O)C1=C(CN2CCN(CCCCCCOc3cc4c(cc3OC)-c3cc(=O)c(C(=O)O)cn3C(C(C)(C)C)C4)C(C(=O)O)C2)NC(c2nccs2)=N[C@H]1c1ccc(F)cc1Cl (stereo partly drawn) [Example 7, 6-tert-butyl-9-[6-[2-carboxy-4-[[(4R)-4-(2-chloro-4-fluoro-phenyl)-5-methoxycarbonyl-2-thiazol-2-yl-1,4-dihydropyrimidin-6-yl]methyl]piperazin-1-yl]hexoxy]-10-methoxy-2-oxo-6,7-dihydrobenzo[a]quinolizine-3-carboxylic Acid]",IC50,190 nM
"COC(=O)C1=C(CN2CCN3C(=O)N(CCCCCCOc4cc5c(cc4OC)-c4cc(=O)c(C(=O)O)cn4C(C(C)(C)C)C5)CC3C2)NC(c2nccs2)=N[C@H]1c1ccc(F)cc1Cl (stereo partly drawn) [Example 8, 6-tert-butyl-9-[6-[7-[[(4R)-4-(2-chloro-4-fluoro-phenyl)-5-methoxycarbonyl-2-thiazol-2-yl-1,4-dihydropyrimidin-6-yl]methyl]-3-oxo-5,6,8,8a-tetrahydro-1H-imidazo[1,5-a]pyrazin-2-yl]hexoxy]-10-methoxy-2-oxo-6,7-dihydrobenzo[a]quinolizine-3-carboxylic Acid]",IC50,48 nM
"COC(=O)C1=C(CN(C)CCCCCCOc2cc3c(cc2OC)-c2cc(=O)c(C(=O)O)cn2C(C(C)(C)C)C3)NC(c2nccs2)=N[C@H]1c1ccc(F)cc1Cl (stereo partly drawn) [Example 9, 6-tert-butyl-9-[6-[[(4R)-4-(2-chloro-4-fluoro-phenyl)-5-methoxycarbonyl-2-thiazol-2-yl-1,4-dihydropyrimidin-6-yl]methyl-methyl-amino]hexoxy]-10-methoxy-2-oxo-6,7-dihydrobenzo[a]quinolizine-3-carboxylic Acid]",IC50,113 nM
"COC(=O)C1=C(CN2CCOC[C@H]2C(=O)NCCOCCOCCOc2cc3c(cc2OC)-c2cc(=O)c(C(=O)O)cn2C(C(C)(C)C)C3)NC(c2nccs2)=N[C@H]1c1ccc(F)cc1Cl (stereo partly drawn) [Example 10, 6-tert-butyl-9-[2-[2-[2-[[(3S)-4-[[(4R)-4-(2-chloro-4-fluoro-phenyl)-5-methoxycarbonyl-2-thiazol-2-yl-1,4-dihydropyrimidin-6-yl]methyl]morpholine-3-carbonyl]amino]ethoxy]ethoxy]ethoxy]-10-methoxy-2-oxo-6,7-dihydrobenzo[a]quinolizine-3-carboxylic Acid]",IC50,569 nM
"COC(=O)C1=C(CN2CCN(CCOCCOCCOc3cc4c(cc3OC)-c3cc(=O)c(C(=O)O)cn3C(C(C)(C)C)C4)C(C(=O)O)C2)NC(c2nccs2)=N[C@H]1c1ccc(F)cc1Cl (stereo partly drawn) [Example 11, 6-tert-butyl-9-[2-[2-[2-[2-carboxy-4-[[(4R)-4-(2-chloro-4-fluoro-phenyl)-5-methoxycarbonyl-2-thiazol-2-yl-1,4-dihydropyrimidin-6-yl]methyl]piperazin-1-yl]ethoxy]ethoxy]ethoxy]-10-methoxy-2-oxo-6,7-dihydrobenzo[a]quinolizine-3-carboxylic Acid]",IC50,6340 nM
"COC(=O)C1=C(CN2CCN(CCC(CCCOc3cc4c(cc3OC)-c3cc(=O)c(C(=O)O)cn3C(C(C)(C)C)C4)C(=O)O)CC2)NC(c2nccs2)=N[C@H]1c1ccc(F)cc1Cl (stereo partly drawn) [Example 12, 6-tert-butyl-9-[4-carboxy-6-[4-[[(4R)-4-(2-chloro-4-fluoro-phenyl)-5-methoxycarbonyl-2-thiazol-2-yl-1,4-dihydropyrimidin-6-yl]methyl]piperazin-1-yl]hexoxy]-10-methoxy-2-oxo-6,7-dihydrobenzo[a]quinolizine-3-carboxylic Acid]",IC50,740 nM
"COC(=O)C1=C(CN2CCOC[C@H]2C(=O)NCCCCCCOc2cc3c(cc2OC)-c2cc(=O)c(C(=O)O)cn2C(C(C)(C)C)C3)NC(c2nccs2)=N[C@H]1c1ccc(F)cc1Cl (stereo partly drawn) [Example 13, 6-tert-butyl-9-[6-[[(3S)-4-[[(4R)-4-(2-chloro-4-fluoro-phenyl)-5-methoxycarbonyl-2-thiazol-2-yl-1,4-dihydropyrimidin-6-yl]methyl]morpholine-3-carbonyl]amino]hexoxy]-10-methoxy-2-oxo-6,7-dihydrobenzo[a]quinolizine-3-carboxylic Acid]",IC50,85 nM
"CCOC(=O)C1=C(COCCCCCCOc2cc3c(cc2OC)-c2cc(=O)c(C(=O)O)cn2C(C(C)(C)C)C3)NC(c2nccs2)=NC1c1ccc(F)cc1Cl (stereo not drawn) [Example 14, 6-tert-butyl-9-[6-[[4-(2-chloro-4-fluoro-phenyl)-5-ethoxycarbonyl-2-thiazol-2-yl-1,4-dihydropyrimidin-6-yl]methoxy]hexoxy]-10-methoxy-2-oxo-6,7-dihydrobenzo[a]quinolizine-3-carboxylic Acid]",IC50,96 nM
"CCOC(=O)C1=C(CN2CCN3C(=O)N(CC(C)(C)C(=O)NCCCCCCOc4cc5c(cc4OC)-c4cc(=O)c(C(=O)O)cn4C(C(C)(C)C)C5)C[C@@H]3C2)NC(c2nccs2)=N[C@H]1c1cccc(F)c1Cl (stereo partly drawn) [Example 15, 9-[6-[[3-[(8aS)-7-[[(4R)-4-(2-chloro-3-fluoro-phenyl)-5-ethoxycarbonyl-2-thiazol-2-yl-1,4-dihydropyrimidin-6-yl]methyl]-3-oxo-5,6,8,8a-tetrahydro-1H-imidazo[1,5-a]pyrazin-2-yl]-2,2-dimethyl-propanoyl]amino]hexoxy]-6-tert-butyl-10-methoxy-2-oxo-6,7-dihydrobenzo[a]quinolizine-3-carboxylic Acid]",IC50,41 nM
